Data from publication PMC8351955, “Targeting Mycobacterium tuberculosis response to environmental cues for the development of effective antitubercular drugs” (PLoS Biology, 2021).
In brackets after ≈: the same amount, converted by molar mass. Several values for one entry are separate records, joined by “and”; a condition that tells them apart may be missing. Equal values may be shown once. Read-outs that look alike come from different tables or passages of the source.

Columns and labels:
[1] = test system: WT Mtb (Erdman) in primary murine BMDMs; assay: Primary murine bone marrow-derived macrophage infection, CFU; type: cell-based, Mycobacterium tuberculosis; conditions: for CFU/ml in BMDMs, average: Fig 1I; for CFU/ml: Fig. 2E, 10 µM
Description: C57BL/6J wild-type mice (Jackson Laboratories) were used for extraction of BMDMs. Cells were harvested and expanded in DMEM containing 10% FBS, 15% L-cell conditioned media, 2 mM L-glutamine, 1 mM sodium pyruvate, and penicillin/streptomycin as needed in a 37°C incubator in a 5% CO2 atmosphere. […] Macrophages were lysed with water containing 0.01% sodium dodecyl sulfate and a dilution series of the samples plated on 7H10 agar for CFU determination.

[2] = target: T1, CYP1A2 (Homo sapiens, UniProt P05177); assay: Human cytochrome P450 inhibition, 1A2; type: in vitro ADME; conditions: read-out: % inhibition of CYP 1A2
T1 sequence (P05177 1-516): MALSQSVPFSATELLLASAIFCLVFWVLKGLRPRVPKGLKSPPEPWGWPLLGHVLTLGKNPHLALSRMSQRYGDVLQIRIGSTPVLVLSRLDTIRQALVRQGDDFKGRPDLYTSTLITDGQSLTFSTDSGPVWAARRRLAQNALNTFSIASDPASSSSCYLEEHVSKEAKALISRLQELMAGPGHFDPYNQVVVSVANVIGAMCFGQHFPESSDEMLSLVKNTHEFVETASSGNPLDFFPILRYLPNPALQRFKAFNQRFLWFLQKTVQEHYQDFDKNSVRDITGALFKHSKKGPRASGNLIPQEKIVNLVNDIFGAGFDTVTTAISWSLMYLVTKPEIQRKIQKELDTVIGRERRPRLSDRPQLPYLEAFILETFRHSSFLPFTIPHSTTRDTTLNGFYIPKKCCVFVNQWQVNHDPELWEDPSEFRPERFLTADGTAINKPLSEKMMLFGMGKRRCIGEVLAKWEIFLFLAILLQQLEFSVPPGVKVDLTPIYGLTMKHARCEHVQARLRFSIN
Description: (§1) Assays examining mouse and human liver microsomal stability, kinetic aqueous solubility, mouse and human plasma protein binding and stability, and human cytochrome P450 inhibition characteristics of the compounds were run by BioDuro (San Diego, CA), using standard protocols as previously described [37]. hERG inhibition assays were also performed by BioDuro.

[3] = test system: Mtb; assay: Mouse Mtb infection, C3HeB/FeJ model, oral C6; type: in vivo, C3HeB/FeJ mice; conditions: for CFU/ml: individual values
Description: C3HeB/FeJ wild-type mice (The Jackson Laboratory) were infected intranasally with 10^3 CFUs of Mtb (35 μl), under light anesthesia with 2% isoflurane. […] The next day, the suspension was homogenized by bead beating with 5 mm steel beads in a TOMY microtube mixer (2 × 20 seconds) and stored at 4°C until use. […] Administration began at 2 or 6 weeks post-infection as indicated. At time of sacrifice, the left lobe and accessory right lobe of the lung were homogenized in PBS + 0.05% Tween 80 and serial dilutions plated on 7H10 agar plates with 100 μg/ml cycloheximide for bacterial load determination. The remaining 3 right lobes were fixed in 4% PFA in PBS. One lobe was used for histological analysis by standard hematoxylin and eosin (H&E) staining (Tufts Comparative Pathology Services). A Nikon Eclipse E400 with a SPOT insight color digital camera was used to image the histology samples.

[4] = Vero cell toxicity assay (MTS); type: cell-based; conditions: African green monkey, Vero cells
Description: Vero cells (African green monkey kidney epithelial cells; ATCC CCL-81) were maintained in DMEM + 10% FBS. For the cell toxicity assay, Vero cells were plated at 1 × 10^5 cells/well in a 96-well plate and incubated for 2 to 3 hours to allow cells to settle. The test compound was dissolved in DMSO at a final concentration of 12 mg/ml. The test compound solution was then added to plated cells, resulting in final test concentrations of 50 to 0.78 μg/ml, with each concentration tested at least in duplicate. To evaluate […] cell viability, 20 μl of a 1:20 MTS:PMS reagent (Promega CellTiter 96 AQueous nonradioactive cell proliferation assay kit) was added to each well after 72 hours of incubation at 37°C, and the plate then incubated for an additional 3 hours. Absorbance at 490 nm was read on a Molecular Devices SpectraMax M5 microplate reader. The CC50 (the minimal amount of compound that inhibited Vero cell growth by 50%) was extrapolated by plotting absorbance at 490 nm versus the concentration […].

[5] = target: CYP2D6 (Homo sapiens, UniProt P10635); assay: Human cytochrome P450 inhibition, 2D6; type: in vitro ADME; conditions: read-out: % inhibition of CYP 2D6
Description: as §1

[6] = Pharmacokinetic assay, single oral dose in CD-1 mice; type: in vivo; conditions: female; for AUC(0-t): mouse, plasma, CD-1 mice, read-out: plasma AUC0–5h
Description: Blood samples were collected in K2EDTA-coated tubes predose, 0.5, 1, 3, and 5 hours post-dose, placed on ice, and centrifuged to recover plasma. The recovered plasma was kept at −80°C as needed prior to analysis, which was performed as previously described. In brief, a Sciex Applied Biosystems Qtrap 4000 triple-quadrupole mass spectrometer coupled to an Agilent 1260 HPLC system was used for HPLC coupled to tandem mass spectrometry (LC–MS/MS) quantitative analysis of the samples, with chromatography attained using an Agilent Zorbax SB-C8 column (2.1 × 30 mm; particle size, 3.5 μm) and a reverse-phase gradient elution. The aqueous mobile phase consisted of Milli-Q deionized water with 0.1% formic acid (A), while the organic mobile phase was 0.1% formic acid in acetonitrile (B). The gradient setup was as follows: 5% to 90% B over 2 minutes, 1 minute at 90% B, then an immediate drop to 5% B and an additional 1 minute at 5% B. Quantification of molecules was carried out via multiple reaction monitoring of parent/daughter transitions in electrospray positive ionization mode, and sample analyses accepted if quality control and standard samples had concentrations within 20% of the nominal concentration. Preparation of compounds for generation of standard curves and quality control spiking solutions were performed as previously described. Data were processed using Analyst software (Version 1.6.2; Applied Biosystems Sciex, Framingham, MA).

[7] = Kinetic aqueous solubility; type: physicochemical; conditions: pH 7.4 phosphate buffered saline; read-out: kinetic aqueous solubility (S)
Description: as §1

[8] = Mouse plasma protein binding; type: in vitro ADME
Description: as §1

CYP2D6, sequence (P10635 whole entry): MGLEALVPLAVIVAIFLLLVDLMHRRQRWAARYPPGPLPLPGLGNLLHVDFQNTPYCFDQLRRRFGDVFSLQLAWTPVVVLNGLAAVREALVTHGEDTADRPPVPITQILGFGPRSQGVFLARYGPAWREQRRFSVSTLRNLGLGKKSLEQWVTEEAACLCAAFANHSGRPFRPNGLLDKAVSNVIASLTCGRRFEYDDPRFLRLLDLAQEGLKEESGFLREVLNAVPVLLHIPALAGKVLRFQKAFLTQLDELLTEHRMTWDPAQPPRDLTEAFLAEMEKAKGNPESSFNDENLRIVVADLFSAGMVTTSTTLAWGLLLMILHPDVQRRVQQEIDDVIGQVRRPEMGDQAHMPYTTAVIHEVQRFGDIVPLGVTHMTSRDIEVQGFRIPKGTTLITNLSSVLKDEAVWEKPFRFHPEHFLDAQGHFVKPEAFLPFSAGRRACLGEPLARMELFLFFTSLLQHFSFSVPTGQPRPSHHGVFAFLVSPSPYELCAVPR

In the case of `CCSc1ncc(CN2CCN(c3nc4ccccc4o3)CC2)cn1` [C6, 2-(4-((2-(ethylthio)pyrimidin-5-yl)methyl)piperazin-1-yl)benzo[d]oxazole], the “Effect on bacterial load / Mtb growth in primary murine BMDMs” value ([1]; 10 μM, 8-day infection time course, vs DMSO) was “significant decrease in bacterial load”, the “CFU/ml in BMDMs, average” value ([1]; 10 μM, day 2) was 153500 CFU/ml and the “CFU/ml in BMDMs, average” value ([1]; 10 μM, day 4) was 188500 CFU/ml. The “CFU/ml in BMDMs, average” value ([1]; 10 μM, day 6) was 283000 CFU/ml, the “CFU/ml in BMDMs, average” value ([1]; 10 μM, day 8) was 322500 CFU/ml and the CFU/ml ([1]; day 2, average) was 426000 CFU/ml. For the same compound, the CFU/ml ([1]; day 2, individual replicates) was 406000 CFU/ml and 418000 CFU/ml and 454000 CFU/ml, the CFU/ml ([1]; day 4, average) was 573333 CFU/ml and the CFU/ml ([1]; day 4, individual replicates) was 580000 CFU/ml and 640000 CFU/ml and 500000 CFU/ml. The CFU/ml ([1]; day 6, average) was 746667 CFU/ml, the CFU/ml ([1]; day 6, individual replicates) was 700000 CFU/ml and 660000 CFU/ml and 880000 CFU/ml and the CFU/ml ([1]; day 8, average) was 1020000 CFU/ml. The CFU/ml ([1]; day 8, individual replicates) was 880000 CFU/ml and 1100000 CFU/ml and 1080000 CFU/ml, the inhibition at 10 µM [2] was less than 1% and the “Lung bacterial load, short-term infection model” value ([3]; 250 mg/kg oral gavage 5 times a week for 2 weeks, started 2 weeks post-infection) was “significantly inhibited Mtb growth”. For the same compound, the “Lung bacterial load, longer-term infection model” value ([3]; 250 mg/kg oral gavage for 2 or 4 weeks, started 6 weeks post-infection) was “significant decrease in bacterial load”, the “Lung histology, short-term infection model” value ([3]; 250 mg/kg, 2-week treatment from 2 weeks post-infection) was “less cellular infiltration” and the “Lung histopathology, longer-term infection model” value ([3]; 250 mg/kg, 2 or 4 weeks treatment from 6 weeks post-infection) was “improved histopathology”. The CFU/ml ([3]; Fig. 4A, 4 weeks (pre-treatment 2 weeks)) was 5260000 CFU/ml and 1940000 CFU/ml and 7340000 CFU/ml and 338000 CFU/ml and 3180000 CFU/ml and 1920000 CFU/ml and 1820000 CFU/ml and 13560000 CFU/ml, the CFU/ml ([3]; Fig. 4C, 8 weeks (pre-treatment 6 weeks)) was 38000 CFU/ml and 860000 CFU/ml and 9200000 CFU/ml and 3340000 CFU/ml and 4100000 CFU/ml and 2340000 CFU/ml and 68000 CFU/ml and 304000 CFU/ml and 270000000 CFU/ml and 3980000 CFU/ml and 234000 CFU/ml and 64000 CFU/ml and 21800 CFU/ml and 62000 CFU/ml and the CFU/ml ([3]; Fig. 4C, 10 weeks (pre-treatment 6 weeks)) was 338000 CFU/ml and 29000 CFU/ml and 2660 CFU/ml and 228000 CFU/ml and 188000 CFU/ml and 43000000 CFU/ml and 112000 CFU/ml and 17800000 CFU/ml and 926000 CFU/ml and 42800000 CFU/ml and 132000 CFU/ml and 118000 CFU/ml and 720000 CFU/ml. For the same compound, the CC50 at 72 h [4] was greater than 50 µg/mL, the inhibition at 10 µM [5] was 10.5% and the Kp at 5 h ([6]; CD-1, mouse, 5-hour partitioning between plasma and lung, 25 mg/kg po, read-out: Clung/Cplasma) was 0.86. For the same compound, the AUC(0-t) ([6]; single 5 mg/kg po dose) was 5480 ng·h/mL, the AUC(0-t) ([6]; single 25 mg/kg po dose) was 25700 ng·h/mL and the solubility kinetic [7] was 76.4 µM (≈ 27.2 µg/mL). It also gave a fraction unbound [8] of 0.03.
